From paper PMC6835763, “Influence of Short Cationic Lipopeptides with Fatty Acids of Different Chain Lengths on Bacterial Biofilms Formed on Polystyrene and Hydrogel Surfaces” (Pharmaceutics, 2019)
In brackets after ≈: the same amount, converted by molar mass. Where a SMILES comes first, the peptide text is derived from it. Bridges are numbered along the chain shown (N, C = ends). Roman numbers before positions name the chains, in order. The star is where a group is joined. Myristoyl = CCCCCCCCCCCCCC(=O)*; Lauroyl = CCCCCCCCCCCC(=O)*

How the values were obtained:
[1] = RP-HPLC retention to evaluate the hydrophobicity of lipopeptides; type: physicochemical; conditions: chromatographic, Luna C18(2) 3.0 × 100 mm, 5.0 µm, linear 20–80% acetonitrile in water over 10 min, 0.1% formic acid, 0.5 mL/min, UV 214 nm, used to evaluate hydrophobicity
Description: The crude peptide was lyophilized and subsequently purified by RP-HPLC. The purifications were carried out on a Phenomenex Gemini-NX C18 column (21.20 × 100 mm, 5.0 µm particle size, and 110 Å pore size). Acetonitrile and water, both containing 0.1% of TFA, were used as the mobile phase. UV detection at 214 nm was used. The crude peptides were eluted with a linear 20–80% acetonitrile gradient in deionized water over 60 min at a flow rate of 10.0 mL/min. The purity and identity of the peptides were confirmed with LC-MS analysis. A Waters Alliance e2695 RP-HPLC system (Waters, Milford, MA, USA) with Waters 2998 PDA (Waters, Milford, MA, USA) and Acquity QDA detectors (Empower®3 software, Database Version 7.21.00.00) was used. All analyses were carried out on a Phenomenex, Luna C18(2) column (3.0 × 100 mm, 5.0 µm particle size, 100 Å pore size). The samples were analyzed with a linear 20–80% acetonitrile gradient in deionized water over 10 min at a flow rate of 0.5 mL/min with UV detection at 214 nm. Both eluents contained 0.1% (v/v) of formic acid. The pure fractions (>95%, by HPLC analysis) were collected and lyophilized. The retention time and percentage of ACN (%) at which each peptide was eluted are included in Table 1 to evaluate the hydrophobicity of lipopeptides. The identity of all compounds was confirmed using mass spectrometry (Waters Alliance e2695 system with Acquity QDA detector, Waters, Milford, MA, USA) with electrospray ionization in positive ion mode (ESI-MS). In this mode, a proton is attached to basic moieties (amine groups, guanidine groups). The theoretical mass of the peptide was calculated and then expected ions (m/z—mass to charge ratio) were compared to measured m/z. The results are presented in Table 1, and mass spectra are presented in the Supplementary Materials.

[2] = test system: Enterococcus faecalis ATCC 29212; type: cell-based; conditions: ATCC 29212, 18 h
Description: (§1) The reference strains of gram-positive and gram-negative bacteria (Table 2) were obtained from the Polish Collection of Microorganisms (Polish Academy of Science, Wroclaw, Poland). The microorganisms were cultured in Muller Hinton Broth II (MHB II, Biocorp, Warsaw, Poland), overnight, at 37 °C. The MICs of synthetic lipopeptides and conventional antimicrobials were determined using the broth microdilution method according to the Clinical and Laboratory Standard Institute (CLSI) guidelines on reference strains. […] The PS were incubated under aerobic conditions at 37 °C for 18 h. The MIC (μg/mL) was assumed as the lowest concentration of the compound that inhibited the growth of the microorganisms. All experiments were performed in triplicate and included the growth and sterility controls.

[3] = test system: Escherichia coli ATCC 25922; type: cell-based; conditions: ATCC 25922, 18 h
Description: as §1

[4] = test system: Proteus mirabilis PCM 543; type: cell-based; conditions: PCM 543, 18 h
Description: as §1

[5] = test system: Pseudomonas aeruginosa ATCC 9027; type: cell-based; conditions: ATCC 9027, 18 h
Description: as §1

[6] = test system: Staphylococcus aureus ATCC 25923; type: cell-based; conditions: ATCC 25923, 18 h
Description: as §1

[7] = test system: Staphylococcus epidermidis ATCC 14990; type: cell-based; conditions: ATCC 14990, 18 h
Description: as §1

[8] = test system: Enterococcus faecalis ATCC 29212; test: MBFIC assay (biofilm formation inhibition, resazurin); type: cell-based; conditions: ca. 5 × 10^8 CFU/mL in MHB II, 37 °C, 18 h, visual, triplicate; for MBFIC E. faecalis, CL: contact lenses (CL, Etafilcon A hydrogel) in 24-well plates; for MBFIC E. faecalis, PS: polystyrene plates (PS), 96-well
Description: (§2) To determine the inhibitory effect of antimicrobials on the formation of biofilm on hydrophobic surfaces, the bacterial suspensions of strains (initial inoculum of ca. 5 × 10^8 CFU/mL in MHB II medium supplemented with antimicrobials) were cultured on 96-well PS at 37 °C for 18 h under aerobic conditions. After incubation, the suspensions were aspirated, and the wells were rinsed three times with sterile phosphate buffer PBS (AppliChem, Darmstadt, Germany) in order to remove the planktonic cells. Resazurin (final concentration per sample = 0.005%) was applied as a cell viability reagent for reading the results. In contact with the living cells, the dye is metabolized by bacterial dehydrogenases, resulting in a reduction of blue resazurin to pink resorufin. All assays were performed in triplicate and included the growth controls (positive controls: bacterial suspensions without antimicrobials) and the sterility controls (negative controls: a sterile MBH medium). After 1h of incubation, a visual evaluation of results was made. […] In a preliminary study, it was established that the application of lipopeptides at a concentration found active from visual evaluation caused the reduction of bacterial metabolism to approximately 10% (or less) of the positive control once the results were evaluated with a spectrophotometer. After 1 h of incubation with the dye, absorbance was measured at 570 and 600 nm using a microplate reader (Thermo Fisher Scientific, Waltham, MA, USA). The metabolic activity of bacteria in the samples was measured according to the formula presented in the previous paper.
(§3) The MBFIC assay with CL was applied in order to access the influence of lipopeptides on the biofilm formation on hydrogel surfaces. The entire sterile CL (1-Day Acuvue Moist, containing Etafilcon A., purchased from Johnson & Johnson (Vision Care, Jacksonsville, FL, USA), were placed in 24-well PS (Orange Scientific, Braine-l’ Alleud, Belgium) and the MBFICs were determined according to the above protocol.

[9] = test system: Escherichia coli ATCC 25922; test: as above; type: cell-based; conditions: ca. 5 × 10^8 CFU/mL in MHB II, 37 °C, 18 h, visual, triplicate; for MBFIC E. coli, CL: contact lenses (CL, Etafilcon A hydrogel) in 24-well plates; for MBFIC E. coli, PS: polystyrene plates (PS), 96-well
Description: as §2, §3

[10] = test system: Proteus mirabilis PCM 543; test: as above; type: cell-based; conditions: ca. 5 × 10^8 CFU/mL in MHB II, 37 °C, 18 h, visual, triplicate; for MBFIC P. mirabilis, CL: contact lenses (CL, Etafilcon A hydrogel) in 24-well plates; for MBFIC P. mirabilis, PS: polystyrene plates (PS), 96-well
Description: as §2, §3

[11] = test system: Pseudomonas aeruginosa ATCC 9027; test: as above; type: cell-based; conditions: ca. 5 × 10^8 CFU/mL in MHB II, 37 °C, 18 h, visual, triplicate; for MBFIC P. aeruginosa, CL: contact lenses (CL, Etafilcon A hydrogel) in 24-well plates; for MBFIC P. aeruginosa, PS: polystyrene plates (PS), 96-well
Description: as §2, §3

[12] = test system: Staphylococcus aureus ATCC 25923; test: as above; type: cell-based; conditions: ca. 5 × 10^8 CFU/mL in MHB II, 37 °C, 18 h, resazurin, visual, triplicate; for MBFIC S. aureus, CL: contact lenses (CL, Etafilcon A hydrogel) in 24-well plates; for MBFIC S. aureus, PS: polystyrene plates (PS), 96-well
Description: as §2, §3

[13] = test system: Staphylococcus epidermidis ATCC 14990; test: as above; type: cell-based; conditions: for MBFIC S. epidermidis, CL: contact lenses (CL, Etafilcon A hydrogel) in 24-well plates; for MBFIC S. epidermidis, CL / MBFIC S. epidermidis, PS: ca. 5 × 10^8 CFU/mL in MHB II, 37 °C, 18 h, resazurin, visual, triplicate; for MBFIC S. epidermidis, PS: polystyrene plates (PS), 96-well
Description: as §2, §3

With CCCCCCCCCCCCCC(=O)N[C@@H](CCCCN)C(=O)N[C@@H](CCCCN)C(=O)N[C@@H](CSSC[C@H](NC(=O)[C@H](CCCCN)NC(=O)[C@H](CCCCN)NC(=O)CCCCCCCCCCCCC)C(N)=O)C(N)=O [Lipopeptide 3, C14-KKC-NH2] (I: Myristoyl-Lys-Lys-Cys-NH2 / II: Myristoyl-Lys-Lys-Cys-NH2; disulfide I:3-II:3) the “% ACN at which the peptide was eluted” value [1] was 43.3%, the “tR' (adjusted retention time)” value [1] was 3.88 min and the “MIC E. faecalis” value [2] was 16 µg/mL (≈ 13.7 µM). For the same molecule, the “MIC E. coli” value [3] was 64 µg/mL (≈ 54.6 µM), the “MIC P. mirabilis” value [4] was 512 µg/mL (≈ 437 µM) and the “MIC P. aeruginosa” value [5] was 128 µg/mL (≈ 109 µM). For the same molecule, the “MIC S. aureus” value [6] was 32 µg/mL (≈ 27.3 µM), the “MIC S. epidermidis” value [7] was 4 µg/mL (≈ 3.41 µM) and the “MBFIC E. faecalis, CL” value [8] was 64 µg/mL. The “MBFIC E. faecalis, PS” value [8] was 256 µg/mL, the “MBFIC E. coli, CL” value [9] was 64 µg/mL and the “MBFIC E. coli, PS” value [9] was 256 µg/mL. The “MBFIC P. mirabilis, CL” value [10] was 512/512 μg/mL, the “MBFIC P. mirabilis, PS” value [10] was 512/512 μg/mL and the “MBFIC P. aeruginosa, CL” value [11] was 512/512 μg/mL. For the same molecule, the “MBFIC P. aeruginosa, PS” value [11] was 512/512 μg/mL, the “MBFIC S. aureus, CL” value [12] was 32 µg/mL and the “MBFIC S. aureus, PS” value [12] was 64 µg/mL. The “MBFIC S. epidermidis, CL” value [13] was 32 µg/mL and the “MBFIC S. epidermidis, PS” value [13] was 64 µg/mL.

For CCCCCCCCCCCC(=O)N[C@@H](CCCCN)C(=O)N[C@@H](CCCCN)C(=O)N[C@@H](CSSC[C@H](NC(=O)[C@H](CCCCN)NC(=O)[C@H](CCCCN)NC(=O)CCCCCCCCCCC)C(N)=O)C(N)=O [Lipopeptide 1, C12-KKC-NH2] (I: Lauroyl-Lys-Lys-Cys-NH2 / II: Lauroyl-Lys-Lys-Cys-NH2; disulfide I:3-II:3), the “% ACN at which the peptide was eluted” value [1] was 38.6%, the “tR' (adjusted retention time)” value [1] was 3.10 min and the “MIC E. faecalis” value [2] was 4 µg/mL (≈ 3.59 µM). For the same molecule, the “MIC E. coli” value [3] was 16 µg/mL (≈ 14.3 µM), the “MIC P. aeruginosa” value [5] was 32 µg/mL (≈ 28.7 µM) and the “MIC S. aureus” value [6] was 8 µg/mL (≈ 7.17 µM). The “MIC S. epidermidis” value [7] was 2 µg/mL (≈ 1.79 µM), the “MBFIC E. faecalis, CL” value [8] was 64 µg/mL and the “MBFIC E. faecalis, PS” value [8] was 16 µg/mL. The “MBFIC E. coli, CL” value [9] was 128/128 μg/mL, the “MBFIC E. coli, PS” value [9] was 128/128 μg/mL and the “MBFIC P. mirabilis, CL” value [10] was >512/>512 μg/mL. For the same molecule, the “MBFIC P. mirabilis, PS” value [10] was >512/>512 μg/mL, the “MBFIC P. aeruginosa, CL” value [11] was 128 µg/mL and the “MBFIC P. aeruginosa, PS” value [11] was 512 µg/mL. For the same molecule, the “MBFIC S. aureus, CL” value [12] was 32/32 μg/mL, the “MBFIC S. aureus, PS” value [12] was 32/32 μg/mL and the “MBFIC S. epidermidis, CL” value [13] was 16 µg/mL. For the same molecule, the “MBFIC S. epidermidis, PS” value [13] was 8 µg/mL and the “concentrations inhibiting formation of SE biofilm (MBFIC range)” value ([13]; range over PS and CL) was 8 to 16 µg/mL.
